# US20120135917A1, “Anti-Gram Negative Bacteria Agent” (priority 2009, published 2012)
# Where two headings read alike, the source gives them in different places.
# Columns and labels:
# Escherichia coli = test: Viable cell count of Escherichia coli with peptide and polymyxin B; assay type: cell-based; settings: ATCC25922; 3 mM LTLR; polymyxin B 0.2 μg/mL
# Description: Escherichia coli (ATCC25922) was used in place of Pseudomonas aeruginosa for the same measurement as in Example 2.
# LTLR whose carboxy terminal was amidated was synthesized to examine the action thereof. Under the same conditions as those in Example 1, various concentrations of the amidated LTLR were added to examine changes in the survival rate of Pseudomonas aeruginosa.
# [1] = test system: Clinical isolates (strains 24, 42, 83, 88 and 92 of P. aeruginosa), strain nalB, strain nfxC; settings: 3 mM LTLR, polymyxin B 0.2 μg/mL
# Description: In Examples and the like described below, the number of viable cells of Gram-negative bacteria (Pseudomonas aeruginosa or Escherichia coli) is measured as follows. A portion of bacteria cultured at 37° C. overnight is added to a fresh MH medium and continues to be cultured at the same temperature. When the turbidity (absorbance at 600 nm) of the bacteria reaches 0.7-0.8, the bacterial solution is added an MH medium to prepare a bacterial solution diluted 1:100-200, which is used for experimental purposes. A solution in which 60-80 μL of the bacterial solution was added to a solution of a peptide and the like to a final amount of 100 μL is cultured for a certain time (3 hours) while stirring at 37° C. After culture, the bacterial solution was diluted with a PBS solution, and the diluted solution is seeded on an MH agar plate and cultured at 37° C. overnight. The following day, the number of colonies grown on the plate is counted to determine the number of viable bacterial cells.
# Clinical isolates (strains 24, 42, 83, 88 and 92 of P. aeruginosa), strain nalB (a strain having acquired high multidrug resistance by highly expressing MexAB-OprM as a drug efflux pump), and strain nfxC (a strain having acquired high multidrug resistance by highly expressing MexEF-OprN as a drug efflux pump) were used in place of the strain PA01 (standard strain) of Pseudomonas aeruginosa used in Example 1 to measure the action of LTLR thereon. In this experiment, the final concentration of polymyxin B was set at 0.2 μg/mL with 3 mM LTLR added to examine changes in the survival rate thereof.
# [2] = test system: Pseudomonas aeruginosa (strain PAO1); test: Viable cell count of Pseudomonas aeruginosa strain PAO1 cultured with peptide and polymyxin B; assay type: cell-based; settings: 0.4 μg/mL polymyxin B
# Description: At this time, the culture was performed under conditions in which various concentrations of a peptide, LTLR (a peptide consisting of 4 amino acid residues, having the sequence leucine-threonine-leucine-arginine) were added. Under each condition, the number of viable cells of Pseudomonas aeruginosa was measured, and it was measured how the addition of the peptide changes the number of the viable cells compared to the number of the viable cells for no addition of the peptide. The results are shown in the graph of FIG. 4(A).
substance,measurement,setting,value
leucine-threonine-leucine-arginine [LTLR],survival rate of Escherichia coli,Escherichia coli,about 1%
same,Survival Rate (%),[1]; P. aeruginosa 24,0%
same,Survival Rate (%),[1]; P. aeruginosa 42,43%
same,Survival Rate (%),[1]; P. aeruginosa 83,0%
same,Survival Rate (%),[1]; P. aeruginosa 88,25%
same,Survival Rate (%),[1]; P. aeruginosa 92,9%
same,Survival Rate (%),[1]; strain nalB (highly expressing MexAB-OprM),0%
same,Survival Rate (%),[1]; strain nfxC (highly expressing MexEF-OprN),1%
same,survival rate of Pseudomonas aeruginosa,"[2]; 2.5 mM peptide, 3 hours culture, vs no addition of peptide",~0%
same,change in survival rate of Pseudomonas aeruginosa,[2]; various concentrations of peptide,decreased in a manner dependent on the concentration
